≈ marks a conversion by molar mass, not a printed value.

This test concerns P388. Put plainly: Cytotoxicity against mouse P388 cells. Type of test: functional. The settings on record: read-out: ED50 (the source's name).

With `CCCCCCC(=O)/C=C/C=C/C(=O)CCCCCC(=O)O` [OSTOPANIC ACID], the EC50 was found to be 1.5 µg/mL (≈ 4.86 µM).

Source of the values: ChEMBL document CHEMBL1150712, “Plant anticancer agents, XLIII. (E,E)-7, 12-dioxo-octadeca-8, 10-dien-1-oic acid (ostopanic acid), a cytotoxic fatty acid from Ostodes Paniculata” (1987).
